Experimental data: PMC6023086, “Improving the Activity of Trp-Rich Antimicrobial Peptides by Arg/Lys Substitutions and Changing the Length of Cationic Residues” (Biomolecules, 2018)
≈ marks a conversion by molar mass, not a printed value. Like-named read-outs stand apart in the source and are kept apart here. Where a SMILES comes first, the peptide text is derived from it. Where no end group is shown, it is not given here. [ ]: non-standard residue; d: D form. Orn = NCCC[C@H](N)C(=O)O; Dab = NCC[C@H](N)C(=O)O; Dap = NC[C@H](N)C(=O)O

Tested on: Escherichia coli ATCC 25922
Format: cell-based
Experimental: The antibacterial activity of the Tritrp-derived peptides and other AMPs was assessed against E. coli ATCC 25922, as a representative of Gram-negative bacteria, incubated in Mueller-Hinton broth media (Table 2). […] Arg-to-Lys mutations were correlated with a decrease in activity for almost all peptides. […] The lack of sensitivity of the activity of the Tritrp3 peptide to the nature of the positively charged residues prompted a more detailed study of the structure-activity relationship. Tritrp7 and Tritrp8 are analogs of Tritrp3 where only a single Pro residue is mutated by Ala. These mutations are known to alter the 3D structure of the peptides when interacting with sodium dodecyl sulfate (SDS) micelles, specifically reducing the helicity of the original Tritrp3 peptide (Table 1).
The antibacterial activity for the peptides in this study against E. coli ATCC 25922 was determined by the broth microdilution method. Briefly, E. coli cells at 5 × 10^5 cfu/mL, obtained from a single colony culture, were incubated in Mueller Hinton broth (MHB) media (Sigma Aldrich, St. Louis, MO, USA) in the presence of two-fold dilution of peptides (0–256 µM) in 96-well polypropylene microtiter plates (Sigma Aldrich, St. Louis, MO, USA). The plates were incubated at 37 °C for 16 h, and the minimal inhibitory concentration was determined after incubation as the minimal peptide concentration at which cell growth was not observed.

[1] = E. coli ATCC 25922, Mueller-Hinton broth, 5 × 10^5 cfu/mL, 37 °C, 16 h, run in triplicate, range of all three experiments

Row | Molecule | MIC (ATCC 25922, 16 h) | MIC [1]
1 | GIGRWLHSARRFGRAFVGEIMNS [Magainin2-F5W–Arg] | 8 µM | 
2 | CC(C)C[C@H](NC(=O)[C@H](Cc1ccccc1)NC(=O)[C@@H]1CCCN1C(=O)[C@H](Cc1c[nH]c2ccccc12)NC(=O)[C@H](Cc1c[nH]c2ccccc12)NC(=O)[C@H](Cc1c[nH]c2ccccc12)NC(=O)[C@@H]1CCCN1C(=O)[C@H](Cc1ccccc1)NC(=O)[C@H](CCN)NC(=O)[C@H](CCN)NC(=O)[C@@H](N)C(C)C)C(=O)N[C@@H](CCN)C(=O)N[C@@H](CCN)C(N)=O [Tritrp–Dab] (H-V[Dab][Dab]FPWWWPFL[Dab][Dab]-NH2) | 4 to 8 µM | 
3 | VRRFAWWWPFLRR-NH2 [Tritrp7–Arg] | 8 µM | 
4 | VRRFPWWWAFLRR-NH2 [Tritrp8–Arg] | 2 to 4 µM | 
5 | CC(C)C[C@H](NC(=O)[C@H](Cc1ccccc1)NC(=O)[C@@H]1CCCN1C(=O)[C@H](Cc1c[nH]c2ccccc12)NC(=O)[C@H](Cc1c[nH]c2ccccc12)NC(=O)[C@H](Cc1c[nH]c2ccccc12)NC(=O)[C@@H]1CCCN1C(=O)[C@H](Cc1ccccc1)NC(=O)[C@H](CCCN)NC(=O)[C@H](CCCN)NC(=O)[C@@H](N)C(C)C)C(=O)N[C@@H](CCCN)C(=O)N[C@@H](CCCN)C(N)=O [Tritrp–Orn] (H-V[Orn][Orn]FPWWWPFL[Orn][Orn]-NH2) | 16 µM (≈ 27.7 µg/mL) | 
6 | VKKFAWWWAFLKK-NH2 [Tritrp3–Lys] | 2 µM | 
7 | VRRFAWWWAFLRR-NH2 [Tritrp3–Arg] | 2 µM | 
8 | ILPWKWPWWPWKK-NH2 [Indolicidin–Lys] | 16 µM | 
9 | CC(C)C[C@H](NC(=O)[C@H](Cc1ccccc1)NC(=O)[C@@H]1CCCN1C(=O)[C@H](Cc1c[nH]c2ccccc12)NC(=O)[C@H](Cc1c[nH]c2ccccc12)NC(=O)[C@H](Cc1c[nH]c2ccccc12)NC(=O)[C@@H]1CCCN1C(=O)[C@H](Cc1ccccc1)NC(=O)[C@H](CCCNC(=N)N)NC(=O)[C@H](CCCNC(=N)N)NC(=O)[C@@H](N)C(C)C)C(=O)N[C@@H](CCCNC(=N)N)C(=O)N[C@@H](CCCNC(=N)N)C(N)=O [Tritrp–Arg] | 2 to 4 µM | 
10 | CC(C)C[C@H](NC(=O)[C@H](Cc1ccccc1)NC(=O)[C@@H]1CCCN1C(=O)[C@H](Cc1c[nH]c2ccccc12)NC(=O)[C@H](Cc1c[nH]c2ccccc12)NC(=O)[C@H](Cc1c[nH]c2ccccc12)NC(=O)[C@@H]1CCCN1C(=O)[C@H](Cc1ccccc1)NC(=O)[C@H](CCCCNC(=N)N)NC(=O)[C@H](CCCCNC(=N)N)NC(=O)[C@@H](N)C(C)C)C(=O)N[C@@H](CCCCNC(=N)N)C(=O)N[C@@H](CCCCNC(=N)N)C(N)=O [Tritrp–hArg] | 4 µM (≈ 7.83 µg/mL) | 
11 | CC(C)C[C@H](NC(=O)[C@H](Cc1ccccc1)NC(=O)[C@@H]1CCCN1C(=O)[C@H](Cc1c[nH]c2ccccc12)NC(=O)[C@H](Cc1c[nH]c2ccccc12)NC(=O)[C@H](Cc1c[nH]c2ccccc12)NC(=O)[C@@H]1CCCN1C(=O)[C@H](Cc1ccccc1)NC(=O)[C@H](CCNC(=N)N)NC(=O)[C@H](CCNC(=N)N)NC(=O)[C@@H](N)C(C)C)C(=O)N[C@@H](CCNC(=N)N)C(=O)N[C@@H](CCNC(=N)N)C(N)=O [Tritrp–Agb] | 4 µM (≈ 7.38 µg/mL) | 
12 | FPVTWKWWKWWKG-NH2 [PuroA–Lys, reference compound] |  | 8 µM
13 | CC[C@H](C)[C@H](N)C(=O)N[C@@H](CC(C)C)C(=O)N1CCC[C@H]1C(=O)N[C@@H](Cc1c[nH]c2ccccc12)C(=O)N[C@@H](CCCCN)C(=O)N[C@@H](Cc1c[nH]c2ccccc12)C(=O)N1CCC[C@H]1C(=O)N[C@@H](Cc1c[nH]c2ccccc12)C(=O)N[C@@H](Cc1c[nH]c2ccccc12)C(=O)N1CCC[C@H]1C(=O)N[C@@H](Cc1c[nH]c2ccccc12)C(=O)N[C@@H](CCCNC(=N)N)C(=O)N[C@@H](CCCNC(=N)N)C(N)=O [Indolicidin, reference compound] | 8 µM (≈ 15.3 µg/mL) | 
14 | CC(C)C[C@H](NC(=O)[C@H](Cc1ccccc1)NC(=O)[C@@H]1CCCN1C(=O)[C@H](Cc1c[nH]c2ccccc12)NC(=O)[C@H](Cc1c[nH]c2ccccc12)NC(=O)[C@H](Cc1c[nH]c2ccccc12)NC(=O)[C@@H]1CCCN1C(=O)[C@H](Cc1ccccc1)NC(=O)[C@H](CN)NC(=O)[C@H](CN)NC(=O)[C@@H](N)C(C)C)C(=O)N[C@@H](CN)C(=O)N[C@@H](CN)C(N)=O [Tritrp–Dap] (H-V[Dap][Dap]FPWWWPFL[Dap][Dap]-NH2) | 4 µM (≈ 6.48 µg/mL) | 
15 | VKKFPWWWAFLKK-NH2 [Tritrp8–Lys] | 4 µM | 
16 | VKKFAWWWPFLKK-NH2 [Tritrp7–Lys] | 32 µM | 
17 | VKKFPWWWPFLKK-NH2 [Tritrp–Lys] | 16 µM | 
18 | FPVTWRWWRWWRG-NH2 [PuroA–Arg] |  | 8 to 16 µM
